In US20220372099A1 (priority 2019, published 2022):
Each block holds one molecule with its values, some of them ahead of it.

Columns and labels:
Polycythemia vera [1] = details: PV mice expressing the orthologous JAK2 mutation; cited from earlier work
Polycythemia vera [2] = details: through week 32 (portal vein thrombosis); 6 events with BAT; cited from earlier work
serum iron = assay: PK-PD experiment, serum iron (Cobas Iron2 colorimetric assay); assay type: in vivo, Cynomolgus monkeys; details: 2.93 mg/kg SC
Experimental: Iron content in plasma/serum was measured using a colorimetric assay on the Cobas c 111 according to instructions from the manufacturer of the assay (assay: IRON2: ACN 661).

[3] = Phase I single dose study in healthy subjects; assay type: in vivo, human; details: 62 healthy subjects
Source text: Compound A is a hepcidin mimetic agent in clinical studies for multiple blood disorders.

Polycythemia vera [4] = assay: Phase 2 study in patients with phlebotomy-requiring Polycythemia vera; details: 10-80 mg SC weekly
[5] = plasma concentrations of Compound A in PV patients; assay type: in vivo, human; details: SC doses of 10 mg to 80 mg, various times after dosing
Experimental: Plasma concentrations of Compound A were measured at various times after dosing of subcutaneous doses of 10 mg to 80 mg in PV patients. The concentrations increased in a dose-dependent manner and varied based on dose and time of sampling. Compound A concentrations ranged from below detectable (<2 ng/mL) to 866 ng/mL (FIGS. 17A and 17B).

erythropoietic activity [6] = assay: repeat-dose study, 13 weekly SC doses with 35-day recovery, limiting erythropoiesis; assay type: in vivo, Cynomolgus monkeys
Source text: A cohort of animals (4/sex/group) were sacrificed on Day 92 (Main), and the remaining animals (2/sex/group) were sacrificed on Day 120 following a 35-day recovery period (Recovery).

erythropoietic activity [7] = assay: repeat-dose study, 4 weekly SC doses with 28-day recovery, limiting erythropoiesis; details: SC weekly x4

Molecule: minihepcidin: hepcidin mimetic administered to PV mice in Casu et al., Blood 2016; not further defined (DTHFPICIF)
hematocrit (Polycythemia vera [1]): normalizes hematocrit
splenomegaly (Polycythemia vera [1]): significantly reduces splenomegaly

Molecule: N#CC[C@H](C1CCCC1)n1cc(-c2ncnc3[nH]ccc23)cn1 [ruxolitinib]
thromboembolic events (Polycythemia vera [2]): 1 event

Molecule: Isovaleric acid-DTHFPCIKF(K(PEG11-Palm))PRSK[Sar]CK-NH2 [Compound B]
time of maximal serum iron reduction (serum iron): about 12 hour
serum iron lower than the pre-dose levels (maximal reduction) (serum iron; about 12 hour post administration): 12 fold

grade of most of the injection site reactions (Polycythemia vera [4]): 1-2 grade
leukocyte count over the course of treatment (Polycythemia vera [4]): remained generally steady
platelet counts over the course of treatment (Polycythemia vera [4]): remained generally steady
plasma concentrations of Compound A, ranged from below detectable (<2 ng/mL) up to [5]: ≤ 866 ng/mL
dose with hematopoietic hypercellularity in bone marrow, extramedullary hematopoiesis and hemosiderin deposition in liver and spleen (erythropoietic activity [6]; SC weekly x13): ≥ 2 mg/kg/dose
dose with increased organ weight (liver and spleen) (erythropoietic activity [6]; SC weekly x13): 6 mg/kg/dose
dose with increase in total bilirubin (tBili) (erythropoietic activity [6]; during the treatment period): ≥ 2 mg/kg/day
dose with significantly elevated levels of platelets (erythropoietic activity [6]; male and female animals): 6 mg/kg/dose
dose causing pharmacology-mediated anemia (dose- and time-dependent decreases in Hct and Hgb) (erythropoietic activity [7]): ≥ 3 mg/kg/dose
Molecule: CCCCCCCCCCCCCCCC(=O)N[C@@H](CCC(=O)NCCCC[C@@H]1NC(=O)[C@H]([C@@H](C)CC)NC(=O)[C@@H](NC(=O)[C@@H]2CCCN2C(=O)[C@H](Cc2ccccc2)NC(=O)[C@H](Cc2c[nH]cn2)NC(=O)[C@@H](NC(=O)[C@H](CC(=O)O)NC(=O)CC(C)C)[C@@H](C)O)CSSC[C@@H](C(=O)N[C@@H](CCCCN)C(N)=O)NC(=O)CNC(=O)[C@H](CCCCN)NC(=O)[C@H](CO)NC(=O)[C@H](CCCNC(=N)N)NC(=O)[C@@H]2CCCN2C(=O)[C@H](CCC(=O)O)NC(=O)[C@H](Cc2ccccc2)NC1=O)C(=O)O [Compound A]
adverse events [3]: without significant adverse events
most frequent adverse events (Polycythemia vera [4]): injection site reaction (ISR) reported by three patients
tolerability (Polycythemia vera [4]): well tolerated
